Data set [1] concerns HUVEC cells. Description: CCK-8 cell viability assay. Format: cell-based, human. The conditions noted are these: 0.78125–200 μg/mL, 24 h. The protocol: 293T [HEK-293] (ATCC® CRL-1573), HUVEC (ATCC CRL-1730 ™, human umbilical vein endothelial cells) and Vero (ATCC® CCL-81™, African green monkey kidney epithelial cells) cells were used in this study. Cells were cultured in RPMI-1640 medium supplemented with 10% fetal bovine serum, 0.1 mM non-essential amino acids, […], 2 mM L-glutamine, and 10 μg/mL gentamicin in a humidified atmosphere of 5% CO2, 95% air at 37 °C. After growing to approximately 80% confluence, the cells were detached with 0.25% (w/v) trypsin-EDTA and then subcultured. The cells were stored in a deep freezer at −80 °C in a solution prepared with 95% medium and 5% DMSO.
Cell viability was assessed according to the manufacturer’s protocol using a Cell Counting Kit-8 (CCK-8) (KTA1020, Abbkine, Atlanta, GA, USA). The assay is based on the reduction of 2-(2-methoxy-4-nitrophenyl)-3-(4-nitrophenyl)-5-(2,4-disulfophenyl)-2H-tetrazolium monosodium salt (WST-8) by cellular mitochondrial dehydrogenase. Cells were seeded in 96-well plates at a final concentration of 5 × 10^3 cells/well in 100 μL complete culture medium and were allowed to attach for 24 h. […] Immediately after the treatment, cell viability in a single column was determined and recorded as time zero (T0). The plain medium with 1% FBS was used as a negative control, whereas ethanol was used as solvent control. Each treatment was performed in four well replicates. At the end of the incubation, the medium was gently aspirated to terminate the experiment, a total volume of 10 μL (5 mg/mL) of CCK-8 solution was added to each well and further incubated under the same conditions for 4 h. The absorbances at 450 nm were measured in a microplate reader (Thermo Labsystem, Waltham, MA, USA), using wells without cells as background. The sample readings were calculated by subtracting the average of background absorbances. […] Cell viability was calculated using the following formula: Cell viability (%) = (ODtreatment − ODblank)/(ODcontrol − ODblank) × 100% [78].

Data set [2] concerns COLR-Ab4 isolate. Description: Scanning electron microscopy of cell morphology. Format: cell-based, Acinetobacter baumannii. The conditions noted are these: COLR-Ab4, MIC concentrations, 3 h. The protocol: To examine the potential impact of the antimicrobial agents on the cell morphology of the COLR-Ab4 isolate, SEM studies were carried out according to the method Bendali et al. (2008), with minor modifications. […] Bacteria incubated without treatment with agents were used as controls. After incubation, the suspension was centrifuged for 10 min at 4000× g. The bacteria were washed twice with 0.1 M phosphate-buffered solution (PBS, pH 7.0). The pellet was fixed in 2.5% glutaraldehyde solution and kept for at 4 °C for 2 h. After washing the bacteria again twice with PBS, the sample was fixed in 1% osmium tetroxide solution for 1 h. Then, the samples were dehydrated through suspension in increasing concentrations of ethanol (30, 50, 70, 80, 90, and 100%) for 10 min each. The ethanol was then replaced by 100% acetone. Finally, the samples were fixed on an SEM support, coated with gold/palladium using sputtering in a vacuum, and examined using SEM (Zeiss LEO 1430, Cambridge, UK).

Data set [3] relates to A. baumannii strains. The conditions noted are these: three A. baumannii isolates; cited from earlier work.
The test system of data set [4] is Vero cells. The conditions noted are these: cited from earlier work; for IC50 (cytotoxic effects): after 48 h, ref 70 (Sevimli-Gur and Yesil-Celiktas); for IC50: read-out: IC50 (cytotoxicity), 24 h of incubation, 5 mM maximum tested dose, ref 69 (Saenglee et al.).
For data set [5], the system named is biofilm production of A. baumannii isolates. Further details: method as in ref 51 (Mumtaz et al., 2023). The conditions noted are these: ref 51 (Mumtaz et al., 2023); cited from earlier work.
The test system of data set [6] is COLR-Ab isolates. Description: Broth microdilution MIC determination (CLSI). The class given is cell-based, Acinetobacter baumannii. The protocol:
The broth microdilution method, as recommended by the CLSI, was used to determine the MIC values of COL, p-CA, FA, and p-MCA [46]. The serial two-fold dilutions of antimicrobial agents were prepared using 96-well microplates with cation-adjusted Mueller-Hinton Broth (MHB) (CAMHB, Merck KGaA, Darmstadt, Germany). Firstly, an initial concentration of 8192 µg/mL was chosen to determine the MIC values of all compounds against COLR-Ab isolates. […] The bacterial suspension was adjusted to the 0.5 McFarland standard and added to each well (final bacterial concentration: 5 × 10^5 colony forming units [CFU]/mL). Additionally, the microdilution plates included controls for bacterial growth (CAMHB + bacteria) and medium sterility (CAMHB). Microdilution plates were incubated at 35 ± 2 °C for 18–24 h. The MIC values were calculated by comparing the growth densities in the antibiotic-containing wells to those in the control wells used in each test set. Each experiment was conducted in triplicate.
In general terms: Broth dilution looks for growth in wells or tubes with falling amounts of substance.

The test system of data set [7] is S. aureus. The conditions noted are these: cited from earlier work.
Data set [8] concerns Bacillus subtilis. The conditions noted are these: cited from earlier work.
The test system of data set [9] is E. coli. The conditions noted are these: cited from earlier work.
The subject of data set [10] is Salmonella enteritidis. Further details: method as in ref 29 (Nakazono et al., 2006). The conditions noted are these: ref 29 (Nakazono et al., 2006); cited from earlier work.
For data set [11], the system named is Micrococcus luteus. Set-up: method as in ref 29 (Nakazono et al., 2006). The conditions noted are these: ref 29 (Nakazono et al., 2006); cited from earlier work.
Data set [12] concerns Streptococcus pneumoniae. Set-up: method as in ref 35 (Lou et al., 2012). The conditions noted are these: ref 35 (Lou et al., 2012); cited from earlier work.
Data set [13] relates to Salmonella typhimurium. Further details: method as in ref 35 (Lou et al., 2012). The conditions noted are these: ref 35 (Lou et al., 2012); cited from earlier work.
The test system of data set [14] is 293T cells. The conditions noted are these: 24 h, tested range 0.78–200 μg/mL.
For data set [15], the system named is HUVEC-originated ECV304 cells. The conditions noted are these: ref 72 (Kong et al.); cited from earlier work.
Data set [16] concerns Shigella dysenteriae. The conditions noted are these: ref 35 (Lou et al., 2012); cited from earlier work.

≈ marks a conversion by molar mass, not a printed value. Where “and” joins values, the source holds several entries; their conditions need not be identical. Identical values can stand only once. Entries after “also recorded” stand apart in the source; their conditions may differ. Like-named read-outs stand apart in the source and are kept apart here.

The MIC is the lowest concentration found to suppress growth. For orientation: IC50 means the concentration needed to halve the response being measured. For `COc1cc(/C=C/C(=O)O)ccc1O` [FA, ferulic acid], the “Cytotoxicity (doses with cytotoxic effects)” value in data set [1] was “did not induce cytotoxic effects; also recorded: did not exhibit any cytotoxic effect”. For the same compound, the “Cell morphology by SEM” value in data set [2] is on record as “certain morphological changes in bacterial cells”. The MIC in [3] was 12.5 µg/mL (≈ 64.4 µM); in data set [6] (COLR-Ab1) it was 1024 µg/mL (≈ 5270 µM); in [6] (COLR-Ab2) it was 1024 µg/mL (≈ 5270 µM); in data set [6] (COLR-Ab3) it was 1024 µg/mL (≈ 5270 µM); in data set [6] (COLR-Ab4) it was 512 µg/mL (≈ 2640 µM); in data set [6] (COLR-Ab5), 1024 µg/mL (≈ 5270 µM). Moreover, the MIC in data set [6] (all isolates except COLR-Ab4) stood at 1024 µg/mL (≈ 5270 µM). The “IC50 (cytotoxic effects)” value in data set [4] is 134 ± 0.8 µg/mL (≈ 690 µM). Besides, in data set [4], the IC50 is greater than 5 mM. The “Inhibition of biofilm production” value in data set [5] is on record as 49–69%.

Take `COc1ccc(C=CC(=O)O)cc1` [p-MCA, p-methoxycinnamic acid]: the “Cytotoxicity (doses with cytotoxic effects)” value in data set [1] was “cytotoxicity in these cells at concentrations of 200, 100, and 50 μg/mL; also recorded: cytotoxic effects in HUVEC cells at doses of 200, 100, and 50 μg/mL”. Besides, in data set [2], the “Cell morphology by SEM” value was “certain morphological changes in bacterial cells”. The MIC in data set [7] is 40 µg/mL (≈ 224 µM); in [7] (ref 29 (Nakazono et al., 2006)) it was 60 µg/mL (≈ 337 µM); in data set [8], 40 µg/mL (≈ 224 µM); in [9], 30 µg/mL (≈ 168 µM); in data set [9] (ref 29 (Nakazono et al., 2006)) it was 50 µg/mL (≈ 281 µM); in data set [10], 60 µg/mL (≈ 337 µM). Further, the MIC in data set [6] (COLR-Ab1) was 512 µg/mL (≈ 2870 µM); in data set [6] (COLR-Ab2), 512 µg/mL (≈ 2870 µM); in data set [6] (COLR-Ab3) it was 256 µg/mL and 128 µg/mL; in data set [6] (COLR-Ab4), 256 µg/mL (≈ 1440 µM); in [6] (COLR-Ab5), 128 µg/mL (≈ 718 µM); in data set [11], 80 µg/mL (≈ 449 µM).

Take `O=C(O)/C=C/c1ccc(O)cc1` [p-CA, p-coumaric acid]: in data set [1], the “Cytotoxicity (doses with cytotoxic effects)” value is “cytotoxicity in HUVEC cells at concentrations of 200 μg/mL (p < 0.01), 100 μg/mL (p < 0.05), and 50 μg/mL (p < 0.05); also recorded: cytotoxic at 200 (p < 0.01), 100 (p < 0.05), and 50 (p < 0.05) μg/mL”. The MIC in [12] is 10 µg/mL (≈ 60.9 µM); in data set [13], 20 µg/mL (≈ 122 µM); in data set [7] (ref 35 (Lou et al., 2012)) it was 80 µg/mL (≈ 487 µM); in data set [16], 20 µg/mL (≈ 122 µM); in data set [8] (ref 35 (Lou et al., 2012)), 20 µg/mL (≈ 122 µM); in data set [9] (ref 35 (Lou et al., 2012)), 20 µg/mL (≈ 122 µM). Further, the MIC in [6] (Acinetobacter baumannii, COLR-Ab1, read-out: MIC) is 256 µg/mL (≈ 1560 µM); in [6] (Acinetobacter baumannii, COLR-Ab2, read-out: MIC), 256 µg/mL (≈ 1560 µM); in data set [6] (Acinetobacter baumannii, COLR-Ab3, read-out: MIC) it was 256 µg/mL (≈ 1560 µM); in data set [6] (Acinetobacter baumannii, COLR-Ab4, read-out: MIC) it was 256 µg/mL (≈ 1560 µM); in data set [6] (Acinetobacter baumannii, COLR-Ab5, read-out: MIC), 128 µg/mL (≈ 780 µM); in [6] (Acinetobacter baumannii, all isolates except COLR-Ab5, read-out: MIC) it was 256 µg/mL (≈ 1560 µM). In addition, the MIC in data set [6] (COLR-Ab5) is 128 µg/mL (≈ 780 µM). Besides, the IC50 value entry in [14] is on record as “indeterminate”. The “Cell morphology by SEM” value in data set [2] is “certain morphological changes in bacterial cells”. Moreover, the “Concentration shown to induce cytotoxicity” value in data set [15] was 5000 µM. Moreover, the “Concentrations with no significant effects on the cell viability” value in [15] is no more than 2500 µM. Further, in [4], the “IC50 (cytotoxic effects)” value was 163 ± 0.3 µg/mL (≈ 993 µM). The IC50 in data set [4] was greater than 5 mM.
